One data set concerns C. albicans biofilms. Kind of data set: Eradication of mature biofilm, MTT method. It counts as cell-based, Candida albicans. Particulars: for concentration removing the total viability of the biofilm: 24 h treatment. The method, then: (§1) Candida strains were cultured in SBA at 30 °C for 24 h. Yeast cells were then suspended in RPMI 1640 broth to a final concentration of 1.5 × 10^7 CFU/mL. For mature biofilm formation, 200 μL of these suspensions was transferred to each well of a 48-well microplate and incubated at 30 °C for 24 h. After incubation, the plate was washed with phosphate-buffered saline (PBS) to remove non-adherent cells. Then, surfactant solutions at various concentrations (200 μL), prepared in RPMI 1640, were added to the wells containing the mature biofilms. Plates were incubated again at 30 °C for 24 h. Following this treatment, the RPMI medium was removed, and wells were washed twice with PBS. To assess biofilm viability, 200 μL of MTT solution (3-(4,5-dimethylthiazol-2-yl)-2,5-diphenyltetrazolium bromide) were added to each well, and plates were incubated for 4 h. After incubation, the MTT solution was removed, and 200 μL of dimethyl sulfoxide (DMSO) were added to solubilize the formazan crystals. Absorbance at 540 nm (A540) was then measured using a microplate reader. Controls without the amino acid-based surfactants were included. All experiments were made in quadruplicate, and the results were averaged to ensure accuracy and reproducibility.
(§2) In this section, we have tested the ability of these cationic surfactants to eradicate mature fungal biofilms of C. albicans and C. tropicalis. Preformed biofilms of these two strains on 48-well plates were exposed to various concentrations of the synthesized surfactants, and the biofilm was not removed after the treatment was quantified using the MTT method (3-[4,5-dimethylthiazol-2-yl]-2,5 diphenyl tetrazolium bromide) (Figure 4). This method detects viable and metabolically active cells within the biofilm by measuring the reduction in MTT to formazan by active mitochondrial enzymes.

The next data set deals with C. tropicalis biofilms. The data set can be described thus: Eradication of mature biofilm, MTT method. It is filed as cell-based, Candida tropicalis. Particulars: 24 h treatment. The procedure:
as §1, §2
(In general: Formazan colour is commonly taken as a measure of viable cells.)

A short description of data set [1]: Cytotoxicity, MTT assay. Particulars: mouse, 3T3 fibroblast cells, 3T3, MTT, read-out: cell viability; for viability at 24 h, 100 µg/mL: at 100 µg/mL; for viability at 24 h, 50 µg/mL: at 50 µg/mL. It is filed as cell-based, Swiss mouse. The procedure: (§3) Immortal human keratinocyte cells (HaCaT) and […] (3T3) were obtained from Celltec, University of Barcelona. Dulbecco’s Modified Eagle Medium (DMEM) (4.5 g/L glucose) supplemented with 10% (v/v) FBS, 2 mM L-glutamine, 100 U/mL of penicillin, and 100 μg/mL of streptomycin was used to grow the cells in 75 cm^2 culture flasks at 37 °C with a continuous supply of CO2 at a 5% level. Once cells reached about 80% confluence, they were trypsinized with trypsin-EDTA.
(§4) Cells were first grown into the central 60 wells of a 96-well plate under 5% CO2 at 37 °C for 24 h. The DMEM was removed, and cells were exposed to different concentrations of each amphiphile diluted in DMEM supplemented with 5% FBS for 24 h. Finally, two different assays for quantification were used.
(§5) This method relies on the ability of living cells to reduce the yellow MTT reagent into insoluble purple formazan crystals. After the cells were incubated with the surfactants’ solutions, the medium was eliminated, and 100 μL of MTT in PBS (5 mg/mL) diluted 1:10 in culture medium (without phenol red and FBS) was added to each well and co-incubated for 3 h. Then, the medium was discarded, and DMSO was added into each well to solubilize the formazan crystals. Finally, the absorbance of the resulting solutions was measured at 550 nm using a microplate reader (Bio-Rad 550 Hercules, CA, USA).
(§6) The cytotoxic effects of these cationic surfactants were also evaluated using two different cell lines. The use of in vitro cytotoxicity tests is increasing daily, driven by the rise in human exposure to chemicals, as these tests are less costly and time-consuming than in vivo methods. The purpose of in vitro cytotoxicity tests is to detect the biocompatibility of these new surfactants. In this work, the cellular response upon incubation with the different surfactant series was evaluated in two representative skin cell lines: Swiss mouse fibroblasts (3T3 cell line) and human-derived keratinocytes (HaCaT cell line). The in vitro cytotoxicity was determined using the MTT as a measure of mitochondrial activity and the Neutral Red Uptake (NRU) related to lysosomal integrity, which are the most commonly used in vitro cytotoxicity endpoint methods. The cellular response at different concentrations (5, 25, 50, and 100 µM) was evaluated after 24 h of incubation.

Data set [2] can be described thus: Cytotoxicity, Neutral Red Uptake (NRU) assay. It counts as cell-based, Swiss mouse. Particulars: mouse, 3T3 fibroblast cells, 3T3, NRU, across the full concentration range, read-out: cell viability. The procedure:
as §3, §4
(§7) The NRU assay is based on the accumulation of neutral red dye within the lysosomes of viable, intact cells. Once the cells were incubated with the surfactants, the DMEM was removed, and the NRU dye solution (50 μg/mL dissolved in the medium without FBS and phenol red) was added to each well, and the reaction was allowed for 2 h. The cells were washed with PBS, and 100 μL of an aqueous solution containing 50% absolute ethanol and 1% acetic acid was then added to each well to extract the incorporated dye. The microplates were then stirred for 5 min at 25 °C to facilitate dissolution. Finally, the absorbance of the resulting solutions was measured at λ = 550 nm using a Bio-Rad 550 microplate reader (Hercules, CA, USA).
as §6

Details of data set [3]: method as in PMID 36559096. To be noted: CO2 Headspace test, pass level 60%; cited from earlier work.
The nature of data set [4]: Cytotoxicity, MTT assay. It is filed as cell-based. To be noted: human, HaCaT keratinocyte cells, read-out: cell viability; for viability at 24 h, 50 µg/mL: at 50 µg/mL. The procedure: as §3, §4, §5
as §6, with “The use of in vitro cytotoxicity tests is increasing daily, driven by the rise in human exposure to chemicals, as these tests are less costly and time-consuming than in vivo methods. The purpose of in vitro cytotoxicity tests is to detect the biocompatibility of these new surfactants.” left out

For data set [5], the system named is 3T3 cells. The data set can be described thus: Cytotoxicity, MTT assay. It counts as cell-based, Swiss mouse. Particulars: Mus musculus, NIH3T3; 3T3, MTT, 24 h; read from viability curves. The procedure:
as §3, §4, §5, §6

Data set [6] has as its system 3T3 cells. The data set can be described thus: Cytotoxicity, Neutral Red Uptake (NRU) assay. It counts as cell-based, Swiss mouse. Particulars: 3T3, NRU, 24 h; moderate toxicity (TANHC12, PANHC12), onset of dramatic toxicity (PNHC12). The procedure: as §3, §4, §7, §6

Where a name gives a salt, the structure may show the parent alone. Read-outs that look alike come from different tables or passages of the source. Peptide text beside a SMILES is read from it. * marks the point of attachment. Lauroyl = CCCCCCCCCCCC(=O)*

The values below come from publication PMC12452389, “Arginine-Derived Cationic Surfactants Containing Phenylalanine and Tryptophan: Evaluation of Antifungal Activity, Biofilm Eradication, Cytotoxicity, and Ecotoxicity” (Journal of Xenobiotics, 2025).

Consider `CCCCCCCCCCNC(=O)C(CCCNC(=N)N)NC(=O)C(N)Cc1ccccc1` (centres unmarked) [PANHC10], for which the “concentration removing the total viability of the biofilm” value with C. albicans biofilms and in the data set with C. tropicalis biofilms was “≈ 400 μM” throughout.

The viability is a read-out of living cells in per cent, often relative to untreated cells. On to `CCCCCCCCCCCC(=O)NC(CCCNC(=N)N)C(=O)OC` (centres unmarked) [C12AM], for which the viability at 24 h in the data set “Cytotoxicity, MTT assay [1]” (across all concentrations up to 100 µg/mL) was above 85%; in data set [2], 100%. Moreover, in data set [3], the biodegradation entry is given as “over 60%”. Moreover, in the data set “Cytotoxicity, MTT assay [4]”, the viability at 24 h, 50 µg/mL was around 90%.

On to `CCCCCCCCCCCCCCNC(=O)C(CCCNC(=N)N)NC(=O)C(N)Cc1ccccc1` (centres unmarked) [PANHC14], for which the “concentration removing the total viability of the biofilm” value with C. albicans biofilms and in the data set with C. tropicalis biofilms was “≈ 50 μM” throughout.

Turning to `CCCCCCCCCCCC(=O)NC(Cc1ccccc1)C(=O)NC(CCCNC(=N)N)C(=O)OC` (stereo not drawn) [C12PAM] (Lauroyl-Phe-Arg-OMe; configuration not given here), in the data set “Cytotoxicity, MTT assay [1]”, the viability at 24 h, 100 µg/mL is around 60%. In the data set with C. albicans biofilms (highest concentration tested), the “reduction of the metabolic activity of the biofilm” value is “less than 65%”. The viability at 24 h in data set [2] is 60 to 100%. For the same compound, the biodegradation result in data set [3] is “over 60%”.

Broadly, the IC50 is the midpoint of a concentration-inhibition curve. High values mean weaker potency, low ones greater potency. As for `CCCCCCCCCCCCNC(=O)C(N)Cc1ccccc1` (centres unmarked) [PNHC12, phenylalanine dodecyl amide hydrochloride], the viability at 24 h, 50 µg/mL is around 0% in “Cytotoxicity, MTT assay [1]” and 0% in “Cytotoxicity, MTT assay [4]”. Besides, the 50% inhibitory concentration (IC50) in the data set on 3T3 cells [5] was below 50 µg/mL. The “concentration at which toxicity was seen” value in the data set with 3T3 cells [6] stood at 5000 ng/mL. For the same compound, the biodegradation entry in data set [3] is reported as “did not reach this pass level”.

As for `CCCCCCCCCCCCNC(=O)C(CCCNC(=N)N)NC(=O)C(N)Cc1c[nH]c2ccccc12` (centres unmarked) [TANHC12], the “concentration at which toxicity was seen” value with 3T3 cells [6] is reported as “around 50 µg/mL”. In data set [3], the biodegradation result is “did not reach this pass level”.

As to `CCCCCCCCCCNC(=O)C(CCCNC(=N)N)NC(=O)C(N)Cc1c[nH]c2ccccc12` (centres unmarked) [TANHC10], the viability at 24 h in “Cytotoxicity, MTT assay [4]” (across the concentration range (TANHCn series)) was around 80%.

With `CCCCCCCCCCCCNC(=O)C(CCCNC(=N)N)NC(=O)C(N)Cc1ccccc1` (centres unmarked) [PANHC12, phenylalanine-arginine dodecyl amide dihydrochloride], in the data set “Cytotoxicity, MTT assay [1]”, the viability at 24 h, 50 µg/mL was around 70% and the viability at 24 h, 100 µg/mL was determined as 5%. In addition, in the data set with C. albicans biofilms, the “concentration removing the total viability of the biofilm” value was “≈ 50 μM”. In addition, in the data set on 3T3 cells [6], the “concentration at which toxicity was seen” value is “around 50 µg/mL”. Further, the “concentration removing the total viability of the biofilm” value with C. tropicalis biofilms is “≈ 50 μM”. In addition, the biodegradation entry in data set [3] is reported as “did not reach this pass level”.
